Measurements: ChEMBL document CHEMBL1159299, “Multidrug-resistance modulators from Stephania japonica” (1997)
Values after ≈ are worked out from the molar mass of the structure shown.

How the values were obtained:
MCF/ADR [1] = test: Reversal of P-gp-mediated multidrug resistance in human MCF/ADR cells assessed as ratio of doxorubicin ED50 without drug to doxorubicin ED50 with drug at 0.8 ug/ml after 6 days by BCA assay; format: cell-based
MCF/ADR [2] = test: Reversal of P-gp-mediated multidrug resistance in human MCF/ADR cells assessed as ratio of doxorubicin ED50 without drug to doxorubicin ED50 with drug at 1.0 ug/ml after 6 days by BCA assay; format: cell-based
MCF/ADR [3] = test: Reversal of P-gp-mediated multidrug resistance in human MCF/ADR cells assessed as ratio of doxorubicin ED50 without drug to doxorubicin ED50 with drug at 0.6 ug/ml after 6 days by BCA assay; format: cell-based
[4] = Cytotoxicity against human MCF7/ADR cells assessed as ratio of drug concentration to drug ED100 at 0.8 ug/ml after 6 days by BCA assay; format: functional, NCI/ADR-RES
[5] = Cytotoxicity against human MCF7/ADR cells; format: functional; details: NCI/ADR-RES, read-out: ED50 (the source's name)
[6] = Cytotoxicity against human MCF7/ADR cells assessed as ratio of drug concentration to drug ED100 at 1.0 ug/ml after 6 days by BCA assay; format: functional, NCI/ADR-RES
[7] = Cytotoxicity against human MCF7/ADR cells assessed as ratio of drug concentration to drug ED100 at 0.15 ug/ml after 6 days by BCA assay; format: functional, NCI/ADR-RES
[8] = Cytotoxicity against human MCF7/ADR cells assessed as ratio of drug concentration to drug ED100 at 0.3 ug/ml after 6 days by BCA assay; format: functional, NCI/ADR-RES
MCF/ADR [9] = test: Reversal of P-gp-mediated multidrug resistance in human MCF/ADR cells assessed as ratio of doxorubicin ED50 without drug to doxorubicin ED50 with drug at 1.15 ug/ml after 6 days by BCA assay; format: cell-based
MCF/ADR [10] = test: Reversal of P-gp-mediated multidrug resistance in human MCF/ADR cells assessed as ratio of doxorubicin ED50 without drug to doxorubicin ED50 with drug at 0.3 ug/ml after 6 days by BCA assay; format: cell-based
[11] = Cytotoxicity against human MCF7/ADR cells assessed as ratio of drug concentration to drug ED100 at 0.6 ug/ml after 6 days by BCA assay; format: functional, NCI/ADR-RES
[12] = Cytotoxicity against human MCF7/ADR cells assessed as ratio of drug concentration to drug ED100 at 10 ug/ml after 6 days by BCA assay; format: functional, NCI/ADR-RES
[13] = Cytotoxicity against human MCF7/ADR cells assessed as ratio of drug concentration to drug ED100 at 6 ug/ml after 6 days by BCA assay; format: functional, NCI/ADR-RES
[14] = Cytotoxicity against human MCF7/ADR cells assessed as ratio of drug concentration to drug ED100 at 3 ug/ml after 6 days by BCA assay; format: functional, NCI/ADR-RES
[15] = Cytotoxicity against human MCF7/ADR cells assessed as ratio of drug concentration to drug ED100 at 8 ug/ml after 6 days by BCA assay; format: functional, NCI/ADR-RES
[16] = Cytotoxicity against human MCF7/ADR cells assessed as ratio of drug concentration to drug ED100 at 1.5 ug/ml after 6 days by BCA assay; format: functional, NCI/ADR-RES

Structure (SMILES): COc1ccc2cc1Oc1ccc(cc1)C[C@H]1c3c(cc(OC)c4c3Oc3cc5c(cc3O4)CCN(C)[C@H]5C2)CCN1C [ISOTRILOBINE]
- Ratio ED50 (MCF/ADR [1]): 57
- Ratio ED50 (MCF/ADR [2]): 70
- Ratio ED50 (MCF/ADR [3]): 32
- Activity [4]: 0.16
- EC50 [5]: 2 µg/mL (≈ 3.47 µM)
- Activity [6]: 0.2
- Activity [7]: 0.03
- Activity [8]: 0.06
- Ratio ED50 (MCF/ADR [9]): 5
- Ratio ED50 (MCF/ADR [10]): 10
- Activity [11]: 0.12

Structure (SMILES): COc1ccc2cc1Oc1ccc(cc1)C[C@@H]1NCCc3cc(OC)c4c(c31)Oc1cc3c(cc1O4)CCN(C)[C@H]3C2 [TRILOBINE]
- Activity (MCF/ADR [1]): 2
- Activity (MCF/ADR [2]): 2
- Activity (MCF/ADR [3]): 1.5
- Activity [4]: 0.13
- EC50 [5]: 1 µg/mL (≈ 1.78 µM)
- Activity [6]: 0.17
- Activity [8]: 0.05
- Activity (MCF/ADR [10]): 1
- Activity [11]: 0.1

Structure (SMILES): COc1ccc(CCN(C)CCCC(C#N)(c2ccc(OC)c(OC)c2)C(C)C)cc1OC (stereo not given) [VERAPAMIL]
- Activity [12]: 0.19
- Activity [13]: 0.12
- Activity [14]: 0.06
- Activity [15]: 0.15
- Activity [16]: 0.03
